Reference: publication PMC9791335 (Heliyon, 2022)

Target: lysine-specific demethylase 1 (LSD1) (Homo sapiens, UniProt O60341)
Experiment: HRP-coupled fluorescence
Assay type: biochemical

SMILES: COc1cc(CNC(=O)CCCCCCC(C)C)ccc1O [DHC, dihydrocapsaicin]
- % inhibition at 10 μM: 76.5
